What was measured:
Type in all cases: cell-based
DU-145 = experiment: SRB colorimetric cell growth inhibition assay, DU-145; settings: Homo sapiens, DU-145, DU-145; for GI50: GI=growth inhibition, read-out: GI50 DU-145; for CC50: LC=cell killing (cytotoxic effect), read-out: LC50 DU-145; for IC (TGI): TGI=total growth inhibition (cytostatic effect), read-out: TGI DU-145
Method in brief: (§1)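 Quantitation uses the sulforhodamine B reaction on cells exposed to sample for the whole assay period; results (mean ± SD, n = 3 wells) yield GI, TGI and LC.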

IGROV-ET = experiment: SRB colorimetric cell growth inhibition assay, IGROV-ET (ET-743 resistant); settings: Homo sapiens, IGROV-ET; for GI50: GI=growth inhibition, read-out: GI50 IGROV-ET; for CC50: LC=cell killing (cytotoxic effect), read-out: LC50 IGROV-ET; for IC (TGI): TGI=total growth inhibition (cytostatic effect), read-out: TGI IGROV-ET
Method in brief: as §1

PANC-1 = experiment: SRB colorimetric cell growth inhibition assay, PANC-1; settings: Homo sapiens, PANC-1, PANC-1; for GI50: GI=growth inhibition, read-out: GI50 PANC-1; for CC50: cell killing (cytotoxic effect), read-out: LC50 PANC-1; for IC (TGI): total growth inhibition (cytostatic effect), read-out: TGI PANC-1
Method in brief: as §1

H-MEC-1 = experiment: SRB colorimetric cell growth inhibition assay, H-MEC-1; settings: Homo sapiens, HMEC-1, H-MEC-1; for GI50: GI=growth inhibition; for IC (TGI): TGI=total growth inhibition (cytostatic effect), read-out: TGI H-MEC-1
Method in brief: (§2)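 Growth and viability quantified by sulforhodamine B staining in 96-well microplates. Triplicate wells give mean ± SD; derived endpoints are GI, TGI (cytostatic) and LC (cytotoxic).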

[1] = as above; settings: human, H-MEC-1 cells, H-MEC-1; LC=cell killing (cytotoxic effect); read-out: LC50 H-MEC-1
Method in brief: as §2

HT-29 = experiment: SRB colorimetric cell growth inhibition assay, HT-29; settings: Homo sapiens, HT-29, HT-29; for GI50: GI=growth inhibition, read-out: GI50 HT-29; for CC50: cell killing (cytotoxic effect), read-out: LC50 HT-29; for IC (TGI): total growth inhibition (cytostatic effect), read-out: TGI HT-29
Method in brief: as §1

LoVo = experiment: SRB colorimetric cell growth inhibition assay, LoVo; settings: Homo sapiens, LoVo; for GI50: GI=growth inhibition, read-out: GI50 LOVO; for CC50: cell killing (cytotoxic effect), read-out: LC50 LOVO; for IC (TGI): total growth inhibition (cytostatic effect), read-out: TGI LOVO
Method in brief: as §1

SK-MEL-28 = experiment: SRB colorimetric cell growth inhibition assay, SK-MEL-28; settings: Homo sapiens, SK-MEL-28, MEL-28; for GI50: GI=growth inhibition, read-out: GI50 MEL-28; for CC50: LC=cell killing (cytotoxic effect), read-out: LC50 MEL-28; for IC (TGI): TGI=total growth inhibition (cytostatic effect), read-out: TGI MEL-28
Method in brief: as §1

LoVo-Dox = experiment: SRB colorimetric cell growth inhibition assay, LoVo-Dox (MDR); settings: Homo sapiens, LOVO-DOX; for GI50: GI=growth inhibition, read-out: GI50 LOVO-DOX; for CC50: cell killing (cytotoxic effect), read-out: LC50 LOVO-DOX; for IC (TGI): total growth inhibition (cytostatic effect), read-out: TGI LOVO-DOX
Method in brief: as §1

A-549 = experiment: SRB colorimetric cell growth inhibition assay, A-549; settings: Homo sapiens, A549, A-549; for GI50: GI=growth inhibition, read-out: GI50 A-549; for CC50: cell killing (cytotoxic effect), read-out: LC50 A-549; for IC (TGI): total growth inhibition (cytostatic effect), read-out: TGI A-549
Method in brief: as §1

K-562 = experiment: SRB colorimetric cell growth inhibition assay, K-562; settings: Homo sapiens, K562, K-562; for GI50: GI=growth inhibition, read-out: GI50 K-562; for CC50: cell killing (cytotoxic effect), read-out: LC50 K-562; for IC (TGI): total growth inhibition (cytostatic effect), read-out: TGI K-562
Method in brief: as §1

SKOV-3 = experiment: SRB colorimetric cell growth inhibition assay, SKOV-3; settings: Homo sapiens; for GI50: SK-OV-3, SKOV-3, GI=growth inhibition, read-out: GI50 SKOV-3; for CC50 / IC (TGI): SK-OV-3, SKOV-3; for CC50: LC=cell killing (cytotoxic effect), read-out: LC50 SKOV-3; for IC (TGI): TGI=total growth inhibition (cytostatic effect), read-out: TGI SKOV-3
Method in brief: as §2

IGROV = experiment: SRB colorimetric cell growth inhibition assay, IGROV; settings: Homo sapiens, IGROV; for GI50: GI=growth inhibition, read-out: GI50 IGROV; for CC50: LC=cell killing (cytotoxic effect), read-out: LC50 IGROV; for IC (TGI): TGI=total growth inhibition (cytostatic effect), read-out: TGI IGROV
Method in brief: as §1

SK-BR-3 = experiment: SRB colorimetric cell growth inhibition assay, SK-BR-3; settings: Homo sapiens, SK-BR-3, SK-BR-3; for GI50: GI=growth inhibition, read-out: GI50 SK-BR-3; for CC50: LC=cell killing (cytotoxic effect), read-out: LC50 SK-BR-3; for IC (TGI): TGI=total growth inhibition (cytostatic effect), read-out: TGI SK-BR-3
Method in brief: as §1

| SMILES | GI50 (DU-145) [µM] | CC50 (DU-145) [µM] | IC (TGI) (DU-145) [µM] | GI50 (IGROV-ET) [µM] | CC50 (IGROV-ET) [µM] | IC (TGI) (IGROV-ET) [µM] | GI50 (PANC-1) [µM] | CC50 (PANC-1) [µM] | IC (TGI) (PANC-1) [µM] | GI50 (H-MEC-1) [µM] | IC (TGI) (H-MEC-1) [µM] | CC50 [1] [µM] | GI50 (HT-29) [µM] | CC50 (HT-29) [µM] | IC (TGI) (HT-29) [µM] | GI50 (LoVo) [µM] | CC50 (LoVo) [µM] | IC (TGI) (LoVo) [µM] | GI50 (SK-MEL-28) [µM] | CC50 (SK-MEL-28) [µM] | other results |
| --- | --- | --- | --- | --- | --- | --- | --- | --- | --- | --- | --- | --- | --- | --- | --- | --- | --- | --- | --- | --- | --- |
| COc1cc(-c2c3n(c4c(=O)oc5cc(OC(=O)[C@H](C)N)c(OC)cc5c24)CCc2c-3cc(OC)c(OC)c2OC(=O)[C@H](C)N)ccc1OC(=O)[C@H](C)N [Compound 96] | 4.26 | 9.2 | 9.2 | 2.69 | 9.2 | 5.6 | 1.68 | 9.2 | 5.65 | 0.381 | 9.2 | 9.2 | 9.2 | 9.2 | 9.2 | 2.28 | 9.2 | 9.2 | 2.14 | 9.18 | IC (TGI) (SK-MEL-28): 4.43 µM; GI50 (LoVo-Dox): 0.563 µM; CC50 (LoVo-Dox): 9.2 µM; IC (TGI) (LoVo-Dox): 2.07 µM; GI50 (A-549): 4.97 µM; CC50 (A-549): 9.2 µM; IC (TGI) (A-549): 9.2 µM; GI50 (K-562): 1.63 µM; CC50 (K-562): 9.2 µM; IC (TGI) (K-562): 4.43 µM; GI50 (SKOV-3): 4.2 µM; CC50 (SKOV-3): 9.2 µM; IC (TGI) (SKOV-3): 9.2 µM; GI50 (IGROV): 1.2 µM; CC50 (IGROV): 7.54 µM; IC (TGI) (IGROV): 3.01 µM; GI50 (SK-BR-3): 0.417 µM; CC50 (SK-BR-3): 5.47 µM; IC (TGI) (SK-BR-3): 1.86 µM |
| COc1cc(-c2c3c4cc(OC)c(OC(=O)[C@H](C)NC(=O)OC(C)(C)C)cc4oc(=O)c3n3ccc4c(OC(=O)[C@H](C)NC(=O)OC(C)(C)C)c(OC)c(OC)cc4c23)ccc1OC(=O)[C@H](C)NC(=O)OC(C)(C)C [Compound 97] | 4.13 | 9.59 | 9.59 | 0.678 | 9.59 | 3.33 | 4.47 | 9.59 | 9.59 | 0.0337 | 0.0959 | 9.59 | 9.59 | 9.59 | 9.59 | 5.28 | 9.59 | 9.59 | 0.262 | 9.59 | IC (TGI) (SK-MEL-28): 4.71 µM; GI50 (LoVo-Dox): 5.29 µM; CC50 (LoVo-Dox): 9.59 µM; IC (TGI) (LoVo-Dox): 9.59 µM; GI50 (A-549): 9.59 µM; CC50 (A-549): 9.59 µM; IC (TGI) (A-549): 9.59 µM; GI50 (K-562): 3.2 µM; CC50 (K-562): 9.59 µM; IC (TGI) (K-562): 6.86 µM; GI50 (SKOV-3): 6.01 µM; CC50 (SKOV-3): 9.59 µM; IC (TGI) (SKOV-3): 9.59 µM; GI50 (IGROV): 0.186 µM; CC50 (IGROV): 7.54 µM; IC (TGI) (IGROV): 1.94 µM; GI50 (SK-BR-3): 1.23 µM; CC50 (SK-BR-3): 9.59 µM; IC (TGI) (SK-BR-3): 3.58 µM |
